Data on three molecules can be found in article PMC5825229 (Molecular cell, 2017).

A word on the IC50: it is the midpoint of a concentration-inhibition curve.

Molecules are shown by their SMILES. Where a chain is given by its changes, count along the chain named.

Common to all, as to assay type: biochemical
In assay [1] the target is T1, human MCU and EMRE reconstituted in yeast mitochondria (HsMCU/EMRE) (Homo sapiens, UniProt Q8NE86).
T1 sequence (Q8NE86 51-351): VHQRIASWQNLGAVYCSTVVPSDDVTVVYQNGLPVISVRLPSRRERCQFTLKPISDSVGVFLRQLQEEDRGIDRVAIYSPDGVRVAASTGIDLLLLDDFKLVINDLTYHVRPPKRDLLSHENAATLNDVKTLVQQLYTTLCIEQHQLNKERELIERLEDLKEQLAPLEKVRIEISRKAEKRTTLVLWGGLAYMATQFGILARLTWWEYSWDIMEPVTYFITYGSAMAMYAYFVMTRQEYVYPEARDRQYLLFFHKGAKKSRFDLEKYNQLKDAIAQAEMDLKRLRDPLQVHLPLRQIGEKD
T1 sequence (Q9H4I9 53-107 partner): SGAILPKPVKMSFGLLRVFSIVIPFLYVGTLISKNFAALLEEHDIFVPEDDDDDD
The assay can be described thus: aequorin Ca2+ uptake rate in isolated yeast mitochondria, Hill fit.

In assay [2] the target is T2, human MCU and EMRE reconstituted in yeast mitochondria (HsMCU/EMRE) (Homo sapiens, UniProt Q8NE86, D261A).
T2 sequence (Q8NE86 51-351 D261A): T1 sequence (Q8NE86 51-351) with D211A
T2 sequence (Q9H4I9 53-107 partner): T1 sequence (Q9H4I9 53-107 partner)
The assay can be described thus: aequorin peak Ca2+ in isolated yeast mitochondria, Hill fit.

Assay [3] addresses T3, MCU (native mitochondrial calcium uniporter of HEK293T mitoplasts and HeLa cells) (Homo sapiens, UniProt Q8NE86).
T3 sequence (Q8NE86 51-351): T1 sequence (Q8NE86 51-351)
T3 sequence (Q9H4I9 53-107 partner): T1 sequence (Q9H4I9 53-107 partner)
The assay can be described thus: whole-mitoplast patch clamp, HEK293T. Conditions: 1 mM bath Ca2+, -160 mV; bath (cytosolic) side, reversible. Background: Patch clamp records ionic current or voltage across a cell membrane.

As for `O=C1c2c(O)ccc(O)c2C(=O)c2c(NCCNCCO)ccc(NCCNCCO)c21` [mitoxantrone], the IC50 in assay [1] is 8.3 ± 0.9 µM; in assay [2] it was 10.7 ± 1.4 µM. Also, in assay [3], the “% reduction of MCU Ca2+ current at 10 μM” value is ~ 85%.
For `NCCNc1ccc(NCCN)c2c1C(=O)c1ccncc1C2=O` [pixantrone], the IC50 amounted to 15 ± 1 µM in assay [1] and 31.8 ± 6.5 µM in assay [2].
Turning to `Nc1ccc(NCCNCCO)c2c1C(=O)c1c(O)ccc(O)c1C2=O` [impurity A], in assay [1], inhibition was half-maximal at 36 ± 0.2 µM (IC50).
